Here are results for 17 molecules from ChEMBL document CHEMBL2407043, “Hydantoin based inhibitors of MMP13--discovery of AZD6605” (Bioorg Med Chem Lett, 2013).

≈ marks a conversion by molar mass, not a printed value.

A short description of data set [1]: Half life in rat. The data set is classed as ADME, organism-based. The settings on record: in vivo.
Data set [2] can be described thus: Volume of distribution at steady state in rat at 2 mg/kg, iv and 5 mg/kg, po. It is filed as ADME, organism-based. The settings on record: in vivo, read-out: Vdss.
The nature of data set [3]: Clearance in rat at 2 mg/kg, iv. The data set is classed as ADME, organism-based. The arrangement: dose 2 mg/kg, route intravenous. Particulars: in vivo.
A short description of data set [4]: Thermodynamic solubility of the compound in phosphate buffer at pH 7.4 at 25 degC after 24 hrs. Particulars: read-out: Therm_solubility.
In another data set the target is Cytochrome P450 3A4 (Homo sapiens, UniProt P08684). The data set can be described thus: Inhibition of human CYP3A4. The data set is classed as ADME.
Sequence of Cytochrome P450 3A4 (P08684 whole entry): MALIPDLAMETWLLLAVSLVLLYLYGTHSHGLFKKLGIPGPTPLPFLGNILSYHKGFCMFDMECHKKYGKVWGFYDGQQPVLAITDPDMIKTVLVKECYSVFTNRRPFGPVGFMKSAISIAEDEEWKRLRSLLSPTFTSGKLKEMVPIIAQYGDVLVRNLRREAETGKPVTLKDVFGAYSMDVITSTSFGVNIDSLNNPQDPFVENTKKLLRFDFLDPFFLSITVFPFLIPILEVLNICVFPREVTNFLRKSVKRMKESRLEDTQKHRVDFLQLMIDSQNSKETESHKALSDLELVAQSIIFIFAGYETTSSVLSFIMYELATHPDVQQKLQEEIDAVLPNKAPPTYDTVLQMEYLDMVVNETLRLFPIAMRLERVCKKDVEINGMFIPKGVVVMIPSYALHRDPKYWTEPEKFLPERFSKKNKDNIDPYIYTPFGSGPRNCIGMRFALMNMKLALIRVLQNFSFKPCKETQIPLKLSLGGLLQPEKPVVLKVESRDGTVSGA
The subject of a further data set is Cavia porcellus. Kind of data set: Inhibition of cartilage loss in Dunkin Hartley guinea pig spontaneous osteoarthritis model at 0.06 mg/kg/day, sc after 12 weeks (reference value: 23%). It is filed as functional. The settings on record: 2016 h, route subcutaneous.
Data set [5] in a line: Oral bioavailability in rat at 3 to 10 mg/kg. It is filed as ADME, organism-based. The settings on record: in vivo.
Data set [6] can be described thus: in vitro. The settings on record: human, liver microsomes. (In general: Liver microsomes are vesicles of endoplasmic reticulum, rich in cytochrome P450 enzymes.)
Data set [7] in a line: Apparent permeability across basolateral to apical side in human Caco2 cells at 10 uM. It is filed as ADME, cell-based. Particulars: Caco-2. For orientation: Caco-2 monolayers are a common model of the intestinal barrier.
A short description of data set [8]: Clearance in rat at 2 mg/kg, iv and 5 mg/kg, po. The settings on record: in vivo. The data set is classed as ADME, organism-based.
A short description of data set [9]: Half life in dog at 0.5 mg/kg, iv and 1 mg/kg, po. It is filed as ADME, organism-based, Canis lupus familiaris. Particulars: in vivo.
Data set [10] in a line: Volume of distribution at steady state in dog at 0.5 mg/kg, iv and 1 mg/kg, po. The data set is classed as ADME, organism-based, Canis lupus familiaris. The settings on record: in vivo, read-out: Vdss.
Data set [11] can be described thus: Fraction unbound in dog plasma. The data set is classed as ADME, cell-free, Canis lupus familiaris.
The nature of data set [12]: Oral bioavailability in dog at 1 mg/kg. Particulars: in vivo. It is filed as ADME, organism-based, Canis lupus familiaris.
Data set [13] can be described thus: Intrinsic clearance in human hepatocytes measured per 10^6 cells. Particulars: read-out: CLH. The data set is classed as ADME, cell-based, Hepatocyte.
The nature of data set [14]: Fraction unbound in human plasma. The data set is classed as ADME, cell-free.
The nature of data set [15]: Solubility of compound in fasted state simulated intestinal fluid. The data set is classed as physicochemical.
Data set [16] can be described thus: Half life in rat at 2 mg/kg, iv and 5 mg/kg, po. The data set is classed as ADME, organism-based. The settings on record: in vivo.
The next data set can be described thus: physchem. Particulars: buffer, pH 7.4.
The nature of data set [17]: in vitro. The settings on record: human, Caco-2.
Data set [18] can be described thus: Fraction unbound in rat plasma. It is filed as ADME, cell-free.
Data set [19] is described as follows: Oral bioavailability in rat at 5 mg/kg. The settings on record: in vivo. It is filed as ADME, organism-based.
Data set [20] in a line: Clearance in dog at 0.5 mg/kg, iv and 1 mg/kg, po. It is filed as ADME, organism-based, Canis lupus familiaris. The settings on record: in vivo.
For data set [21], the target named is Matrix metalloproteinase-14 (Homo sapiens, UniProt P50281).

For `C[C@]1(CS(=O)(=O)N2CCN(c3ncc(OCc4cc(C(F)(F)F)no4)cn3)CC2)NC(=O)NC1=O`, the half-life – broadly, how long it takes for the measured level to halve – in data set [1] was 3.3 h. In data set [2], the Vd came to 0.5 L/kg. The molecule also displayed a clearance in data set [3] of 9.4 mL/min/kg. The solubility thermodynamic at 24 h in data set [4] was found to be 3.1 µM (≈ 1.61 µg/mL).

`O=CN(O)[C@@H](CCCc1ncccn1)CS(=O)(=O)N1CCN(c2ccc(C(F)(F)F)cn2)CC1`: at Cytochrome P450 3A4, the IC50 (commonly the concentration that gives 50% inhibition) is 1000 nM.

On to `O=CN(O)[C@@H](CCc1ncccn1)CS(=O)(=O)N1CCN(c2ccc(OCC(F)(F)F)cn2)CC1`, for which, in the data set with Cavia porcellus, the inhibition in vivo (in general, the relative decrease from the control value, in per cent) at 0.06 mg/kg/day was determined as 76%.

`C[C@]1(CS(=O)(=O)N2CCC(Oc3ccc(OCc4ncccn4)cc3)CC2)NC(=O)NC1=O`: the solubility thermodynamic at 24 h in data set [4] is 560 µM (≈ 266 µg/mL).

Regarding `Cc1cc(COc2cnc(N3CCN(S(=O)(=O)C[C@@]4(C)NC(=O)NC4=O)CC3)nc2)n(C)n1`, the solubility thermodynamic at 24 h in data set [4] worked out at 32 µM (≈ 15.3 µg/mL).

Consider `C[C@]1(CS(=O)(=O)N2CCN(c3ncc(OCc4cncs4)cn3)CC2)NC(=O)NC1=O`, for which the solubility thermodynamic at 24 h in [4] stood at 49 µM (≈ 22.9 µg/mL).

`Cc1cc(COc2cnc(N3CCN(S(=O)(=O)C[C@@]4(C)NC(=O)NC4=O)CC3)nc2)on1`: in data set [1], the half-life was 0.67 h. Also, in data set [5], the bioavailability (in general, dose-corrected exposure relative to a reference, in per cent) was determined as 37%. The Vd in [2] turned out to be 0.5 L/kg. In [3], the clearance was 13.4 mL/min/kg. Moreover, the microsomal CLint (usually the capacity of the preparation to metabolise the compound, expressed as a volume cleared per time) in the data set “in vitro [6]” is under 2 µL/min/mg. Further, the solubility thermodynamic at 24 h in [4] stood at 13 µM (≈ 6.05 µg/mL).

In turn, `CCc1cc(COc2cnc(N3CCN(S(=O)(=O)C[C@@]4(C)NC(=O)NC4=O)CC3)nc2)on1` returned a microsomal CLint in the data set “in vitro [6]” of under 2 µL/min/mg.

For the molecule `C[C@]1(CS(=O)(=O)N2CCN(c3ncc(OCc4ccc(C(F)(F)F)o4)cn3)CC2)NC(=O)NC1=O`, the results for the half-life in [1], in data set [9] and in data set [16] were 2.6 h, 10.6 h and 2.6 h, respectively. Besides, the bioavailability came out at 100% in data set [5], 51% in data set [12] and 100% in data set [19]. In addition, in [7], the Papp B→A – broadly, how fast a substance crosses the layer from the basolateral side – at 10 µM was 52 ×10⁻⁶ cm/s. For the same molecule, the results for the Vd in [2] and in [10] were 1.3 L/kg and 1.2 L/kg, respectively. Moreover, the clearance in data set [3] is 6.3 mL/min/kg; in data set [8], 6.3 mL/min/kg; in [20], 1.3 mL/min/kg. Besides, the fraction unbound (as a rule, the share of the substance not bound to proteins or other matrix) in [11] was 0.08; in [14] it was 0.06; in data set [18], 0.08. Further, the microsomal CLint in “in vitro [6]” was found to be 7 µL/min/mg. Moreover, the hepatocyte CLint in data set [13] was under 2 µL/min/1e6 cells. Besides, the solubility (commonly how much of the substance goes into solution per volume) in [15] is 26.5 µM (≈ 13.7 µg/mL). For the same molecule, the solubility thermodynamic at 24 h in data set [4] stood at 11 µM (≈ 5.7 µg/mL). Also, the logD (usually the decadic logarithm of the distribution of all forms, ionised or not, between an organic phase and buffer at a given pH) in “physchem” was determined as 2.3. In “in vitro [17]”, the Papp A→B (in general, how fast a substance crosses the layer from the apical side) at 10 µM amounted to 9 ×10⁻⁶ cm/s.

For the molecule `C[C@]1(CS(=O)(=O)N2CCN(c3ncc(OCc4cnc(C#N)s4)cn3)CC2)NC(=O)NC1=O`, the half-life in data set [1] was 0.23 h. In [5], this molecule returned a bioavailability of 6%. Besides, the Vd in data set [2] turned out to be 0.5 L/kg. Further, the clearance in [3] was found to be 97.3 mL/min/kg. This molecule showed an intrinsic metabolic clearance (microsomal CLint) in the data set “in vitro [6]” of 16 µL/min/mg. Also, the solubility thermodynamic at 24 h in data set [4] is 14 µM (≈ 6.9 µg/mL).

In the case of `CCCOc1ccc(OC2CCN(S(=O)(=O)C[C@@]3(C)NC(=O)NC3=O)CC2)cc1`, the half-maximal inhibitory concentration (IC50) in data set [21] is over 10000 nM.

On to `C[C@]1(CS(=O)(=O)N2CCC(Oc3ccc(OCc4ccccc4)cc3)CC2)NC(=O)NC1=O`, for which the solubility thermodynamic at 24 h in data set [4] was under 0.8 µM.

Take `C[C@]1(CS(=O)(=O)N2CCC(Oc3ccc(OCc4ccc(S(C)(=O)=O)cc4)cc3)CC2)NC(=O)NC1=O`: 62 nM corresponded to half-maximal inhibition in data set [21] (IC50). In addition, the solubility thermodynamic at 24 h in data set [4] was determined as 3.1 µM (≈ 1.71 µg/mL).

With `C[C@]1(CS(=O)(=O)N2CCC(Oc3ccc(OCc4ccc(C#N)cc4)cc3)CC2)NC(=O)NC1=O`, the solubility thermodynamic at 24 h in data set [4] was found to be 1.8 µM (≈ 0.897 µg/mL).

Take `C[C@]1(CS(=O)(=O)N2CCC(Oc3ccc(OCc4cccc(C#N)c4)cc3)CC2)NC(=O)NC1=O`: the solubility thermodynamic at 24 h in [4] is 4.4 µM (≈ 2.19 µg/mL).

In the case of `COc1ccc(COc2ccc(OC3CCN(S(=O)(=O)C[C@@]4(C)NC(=O)NC4=O)CC3)cc2)cc1`, in [21], the IC50 was found to be 1080 nM. The solubility thermodynamic at 24 h in data set [4] worked out at 1.2 µM (≈ 0.604 µg/mL).

`C[C@]1(CS(=O)(=O)N2CCC(Oc3ccc(OCc4ccc(F)cc4)cc3)CC2)NC(=O)NC1=O` showed an IC50 in data set [21] of 7730 nM.
